The results in this text go back to US20240238426A1, “PROTEIN ACYLATION MODULATION BY HETEROBIFUNCTIONAL MOLECULES” (THE SCRIPPS RESEARCH INSTITUTE, priority 2021, published 2024).

The test system of test [1] is p21 (CDKNIA), PUMA, MDM2, and GLS2. The experiment in a line: Immunoblot of p53 target gene expression in FKBP12^F36V-p53 H1299 cells. Type of test: cell-based, Human. The note with it: 8 hr; for effect of co-treatment on AceTAG-1 induced p21 expression: 3 μM AceTAG-1 with 10 μM A485 or 50 μM FKBP12^F36V-binding ligand, FIG. 7E. Here is the method: (§1) Immunoblotting: Cells were harvested in cold DPBS by scraping and washed with cold DPBS twice. Cell pellets were resuspended in DPBS supplemented with 5 mM sodium butyrate, 20 mM Nicotinamide, and 1X Halt Protease Inhibitor Cocktail and lysed by sonication (15 ms on, 40 ms off, 15% amplitude, 1s total on x 3). Protein concentration was determined using DC Protein Assay (Bio-Rad) and absorbance read using a CLARIOstar plate reader following manufacturer's instructions. Samples with equal protein content were boiled in 4X SDS gel loading buffer for 10 min. Proteins were separated by 10%, 12.5%, or 15% SDS-polyacrylamide gel electrophoresis and transferred to PVDF membranes using Trans-Blot Turbo RTA Mini […] LF PVDF Transfer Kit (Bio-Rad). Membranes were incubated for 1 h at room temperature with blocking buffer, followed by incubating overnight at 4° C. with primary antibodies. After washing in TBST, the secondary antibodies were incubated with the membranes at room temperature for 1 h. The membranes were washed with TBST for three times and visualized on a Bio-Rad ChemiDoc MP Imaging System with Clarity Max Western ECL substrate (Bio-Rad) or SuperSignal West Femto Chemiluminescent substrate proprietary luminol and peroxide solution kit (Thermo Scientific Pierce).
(In western blotting, separated proteins are transferred to a membrane and probed.)

The target of the next test is T1, H3.3-FKBP12^F36V (Homo sapiens, UniProt P62942+Q09472, F37V).
T1 construct: expressed in transfected cells
T1 sequence (P62942 2-108 F37V limits assumed): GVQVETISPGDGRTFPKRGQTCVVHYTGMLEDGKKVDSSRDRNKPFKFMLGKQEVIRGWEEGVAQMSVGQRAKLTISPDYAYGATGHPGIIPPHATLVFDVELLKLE
T1 sequence (Q09472 2-2414 limits assumed, stated change not applied): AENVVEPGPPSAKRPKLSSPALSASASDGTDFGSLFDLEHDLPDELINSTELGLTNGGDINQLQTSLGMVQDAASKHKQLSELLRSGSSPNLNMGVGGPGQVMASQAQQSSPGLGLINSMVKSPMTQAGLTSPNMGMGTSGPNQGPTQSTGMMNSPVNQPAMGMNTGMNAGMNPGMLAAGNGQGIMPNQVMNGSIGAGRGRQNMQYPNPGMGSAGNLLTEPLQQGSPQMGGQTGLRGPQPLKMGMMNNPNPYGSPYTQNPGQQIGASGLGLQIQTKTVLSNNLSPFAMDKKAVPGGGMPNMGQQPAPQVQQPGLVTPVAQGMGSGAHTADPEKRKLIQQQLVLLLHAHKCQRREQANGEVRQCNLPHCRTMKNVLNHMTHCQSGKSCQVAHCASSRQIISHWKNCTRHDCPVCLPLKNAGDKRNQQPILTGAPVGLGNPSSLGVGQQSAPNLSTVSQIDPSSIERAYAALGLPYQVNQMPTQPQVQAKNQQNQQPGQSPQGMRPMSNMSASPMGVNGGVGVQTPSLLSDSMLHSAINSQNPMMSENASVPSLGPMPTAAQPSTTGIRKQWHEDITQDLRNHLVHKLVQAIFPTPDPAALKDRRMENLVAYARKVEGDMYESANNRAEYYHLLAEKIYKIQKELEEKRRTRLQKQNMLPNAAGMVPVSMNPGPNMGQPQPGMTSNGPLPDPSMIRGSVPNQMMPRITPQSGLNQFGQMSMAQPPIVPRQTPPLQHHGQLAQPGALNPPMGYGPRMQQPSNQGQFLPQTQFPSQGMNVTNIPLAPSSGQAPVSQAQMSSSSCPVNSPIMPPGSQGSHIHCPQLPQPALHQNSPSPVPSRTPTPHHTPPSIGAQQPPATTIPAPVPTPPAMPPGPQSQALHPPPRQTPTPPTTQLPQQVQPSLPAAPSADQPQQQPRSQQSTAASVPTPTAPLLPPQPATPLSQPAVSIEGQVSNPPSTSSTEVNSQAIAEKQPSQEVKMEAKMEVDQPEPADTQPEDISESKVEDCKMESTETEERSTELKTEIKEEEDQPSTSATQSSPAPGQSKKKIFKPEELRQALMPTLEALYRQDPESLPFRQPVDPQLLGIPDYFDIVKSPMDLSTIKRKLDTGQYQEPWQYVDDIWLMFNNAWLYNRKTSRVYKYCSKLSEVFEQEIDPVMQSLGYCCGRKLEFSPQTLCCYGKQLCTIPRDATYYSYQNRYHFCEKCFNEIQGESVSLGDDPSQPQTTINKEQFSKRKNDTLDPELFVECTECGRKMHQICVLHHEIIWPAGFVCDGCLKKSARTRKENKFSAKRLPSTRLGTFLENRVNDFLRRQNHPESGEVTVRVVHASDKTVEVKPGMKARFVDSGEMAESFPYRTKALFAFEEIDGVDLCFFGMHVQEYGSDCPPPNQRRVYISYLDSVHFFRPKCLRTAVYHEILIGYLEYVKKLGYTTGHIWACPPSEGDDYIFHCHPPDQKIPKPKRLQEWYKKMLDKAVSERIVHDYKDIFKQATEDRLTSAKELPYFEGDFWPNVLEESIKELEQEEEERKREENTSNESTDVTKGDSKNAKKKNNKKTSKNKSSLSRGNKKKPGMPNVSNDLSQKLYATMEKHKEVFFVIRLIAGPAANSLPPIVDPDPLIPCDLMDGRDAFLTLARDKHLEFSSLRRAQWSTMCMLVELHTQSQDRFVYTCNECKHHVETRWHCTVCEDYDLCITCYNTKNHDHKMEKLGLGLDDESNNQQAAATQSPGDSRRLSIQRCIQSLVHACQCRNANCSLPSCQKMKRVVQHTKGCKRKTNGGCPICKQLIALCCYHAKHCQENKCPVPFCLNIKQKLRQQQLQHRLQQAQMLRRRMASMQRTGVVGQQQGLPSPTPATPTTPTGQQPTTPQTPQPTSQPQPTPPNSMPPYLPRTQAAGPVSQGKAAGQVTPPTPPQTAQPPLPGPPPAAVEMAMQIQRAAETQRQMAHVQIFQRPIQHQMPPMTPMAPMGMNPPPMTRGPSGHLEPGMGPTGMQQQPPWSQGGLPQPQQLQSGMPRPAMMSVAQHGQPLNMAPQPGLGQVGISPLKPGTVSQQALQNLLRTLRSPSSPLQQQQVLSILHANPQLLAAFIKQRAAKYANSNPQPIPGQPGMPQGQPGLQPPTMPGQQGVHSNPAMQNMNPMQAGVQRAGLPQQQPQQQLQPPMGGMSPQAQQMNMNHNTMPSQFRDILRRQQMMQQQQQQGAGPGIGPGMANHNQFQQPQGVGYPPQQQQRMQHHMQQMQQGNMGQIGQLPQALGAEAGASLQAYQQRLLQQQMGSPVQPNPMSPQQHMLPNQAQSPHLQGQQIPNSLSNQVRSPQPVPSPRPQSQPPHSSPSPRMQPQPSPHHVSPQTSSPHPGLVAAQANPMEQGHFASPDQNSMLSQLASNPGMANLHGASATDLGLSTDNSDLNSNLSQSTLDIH
The experiment in a line: Immunoblot analysis of H3.3-FKBP12^F36V acetylation in HeLa cells. Type of test: cell-based. The note with it: for acetylation of H3.3: HeLa cells, FIG. 8. The procedure:
(§2) Lentivirus Production and Transduction: Lentiviral production was performed using HEK293T cells, which were co-transfected with pMD2.G (Addgene, #12259), psPAX2 (Addgene, #12260), and AceTAG lentiviral plasmids using PEI (Polysciences Inc). Viral particles were collected 72 h after transfection and filtered through a […] membrane. A range of dilutions of the lentivirus in DMEM complete and 10 μg/mL polybrene were added to HeLa, H1299, or HeLa RelA KO cell lines. Transduced cells were selected with 1 μg/mL or 2 μg/mL puromycin.
as §1

Test [2] has as its system T2, FKBP12^F36V-RelA (Homo sapiens, F37V).
T2 construct: expressed in transfected cells
The experiment in a line: Immunoblot analysis of FKBP12^F36V-RelA acetylation in RelA-/- HeLa cells. It is filed as cell-based. The note with it: 625 nM AceTAG-1 with 50 μM FKBP ligand or 1 μM A485, 2 hr, FIG. 6B. The procedure:
as §2, §1

Test [3] deals with T3, FKBP12^F36V-p53 (Homo sapiens, F37V).
T3 construct: expressed in transfected cells
T3 sequence (P62942 2-108 F37V limits assumed): as the sequence (P62942 2-108 F37V limits assumed) above
T3 sequence (Q09472 2-2414 limits assumed, stated change not applied, further chain): as the sequence (Q09472 2-2414 limits assumed, stated change not applied) above
The experiment in a line: Immunoblot analysis of FKBP12^F36V-p53 acetylation in H1299 cells. It is filed as cell-based. The following applies: 625 nM AceTAG-1 with 50 μM FKBP ligand or 1 μM A485, 2 hr, FIG. 6D. The procedure: as §2, §1

Test [4] deals with H3.3-FKBP12^F36V HeLa cells. The experiment in a line: Quantitative acetylproteomics of H3.3-FKBP12^F36V HeLa cells. Type of test: cell-based, Human. The following applies: 2 μM SAHA, FIG. 5E. The procedure:
Sample preparation: Frozen cell pellets were thawed on ice and lysed in a buffer containing 50 mM Tris-HCl (pH 7.5), 150 mM NaCl, 1 mM EDTA, 1% NP-40, 0.1% sodium deoxycholate, 5 mM sodium butyrate, 10 mM nicotinamide and 1X Pierce™ protease inhibitor cocktail. Cells were sonicated to ensure complete lysis, mixed with 5 M NaCl at a ratio of 1:10 with sample volume and incubated on ice for 15 min to release chromatin-bound proteins. Cell lysates were then sonicated again to shear genomic DNA. Cellular debris was cleared by centrifugation at 16,000 g for 20 min at 4° C., protein concentration was determined using a Pierce™ BCA assay and ˜10 mg of protein was aliquoted for acetyl-proteomic analysis. Proteins were denatured with 8 M urea in 50 mM HEPES, reduced with 5 mM dithiothreitol for 30 min at 56° C., then alkylated with 5 mM iodoacetamide for 20 min in the dark at RT. Following alkylation, proteins were precipitated using chloroform-methanol as previously described, and protein pellets were dried at 56° C. for 15 min. Proteins pellets were resuspended in 1 M urea in 50 mM HEPES and digested in a two-step process with LysC and trypsin as previously described. Digested peptides were desalted using Phenomenex Strata-X polymeric reverse phase extraction cartridges using the following protocol. Cartridges were conditioned with 1 mL 100% acetonitrile, 1 mL 80% acetonitrile/0.5% AA, and 1 mL 0.1% TFA. Peptides were then loaded on to the cartridge at a reduced flow rate and desalted with 5 mL 0.1% TFA followed by 1 mL 0.5% AA. Desalted peptides were eluted using 1 mL 40% acetonitrile/0.5% AA followed by 1 mL 80% acetonitrile/0.5% AA and lyophilized. Digested peptides were quantified using the Pierce™ Quantitative Colorimetric Peptide Assay and […] was aliquoted from each for total protein analysis while the remaining peptide was lyophilized and retained for acetyl-peptide enrichment.
Acetyl-peptide Enrichment: Acetyl-peptides were enriched using the PTMScan® Acetyl-Lysine Motif [Ac-K] Kit according to manufacturer instructions. […]

Test [5] concerns the target 6xHis-p300-BRD (active motif #31372) (UniProt Q09472). The experiment in a line: AlphaScreen, GST-FKBP12^F36V and 6xHis-p300-BRD with a titration of the small molecule AceTAG-1; bell-shaped curve. Background: In Alpha technology, singlet oxygen from a donor bead excites a nearby acceptor bead.

T2 sequence (P62942 2-108 F37V limits assumed): as the sequence (P62942 2-108 F37V limits assumed) above
T2 sequence (Q09472 2-2414 limits assumed, stated change not applied, further chain): as the sequence (Q09472 2-2414 limits assumed, stated change not applied) above
Chain of 6xHis-p300-BRD (active motif #31372) (Q09472 1040-1161 limits assumed): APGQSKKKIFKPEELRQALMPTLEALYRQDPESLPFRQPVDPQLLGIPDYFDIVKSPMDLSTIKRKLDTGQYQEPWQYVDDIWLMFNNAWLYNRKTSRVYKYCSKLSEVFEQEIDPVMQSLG

In the case of `CNC(=O)Nc1ccc2c(c1)CC[C@@]21OC(=O)N(CC(=O)N(Cc2ccc(F)cc2)[C@@H](C)C(F)(F)F)C1=O` [A485, reference compound], the “effect of co-treatment on AceTAG-1 induced p21 expression” value in test [1] is reported as “blocked”.
With `CC[C@H](C(=O)N1CCCC[C@H]1C(=O)O[C@H](CCc1ccc(OC)c(OC)c1)c1cccc(OCC(=O)NCCOCCOCCOCCC(=O)NCCOc2ccc(CCc3nc4cc(-c5c(C)noc5C)ccc4n3CCN3CCOCC3)cc2)c1)c1cc(OC)c(OC)c(OC)c1` [AceTAG-2, (R)-3-(3,4-dimethoxyphenyl)-1-(3-((18-(4-(2-(5-(3,5-dimethylisoxazol-4-yl)-1-(2-morpholinoethyl)-1H-benzo[d]imidazol-2-yl)ethyl)phenoxy)-2,15-dioxo-6,9,12-trioxa-3,16-diazaoctadecyl)oxy)phenyl)propyl (S)-1-((S)-2-(3,4,5-trimethoxyphenyl)butanoyl)piperidine-2-carboxylate], the “acetylation of H3.3” value on H3.3-FKBP12^F36V is listed as “significant acetylation of H3.3”.
Take `CC[C@H](C(=O)N1CCCC[C@H]1C(=O)O[C@H](CCc1ccc(OC)c(OC)c1)c1cccc(OCC(=O)NCCCCCCCC(=O)NCCOc2ccc(CCc3nc4cc(-c5c(C)noc5C)ccc4n3CCN3CCOCC3)cc2)c1)c1cc(OC)c(OC)c(OC)c1` [AceTAG-3, (R)-3-(3,4-dimethoxyphenyl)-1-(3-(2-((8-((2-(4-(2-(5-(3,5-dimethylisoxazol-4-yl)-1-(2-morpholinoethyl)-1H-benzo[d]imidazol-2-yl)ethyl)phenoxy)ethyl)amino)-8-oxooctyl)amino)-2-oxoethoxy)phenyl)propyl (S)-1-((S)-2-(3,4,5-trimethoxyphenyl)butanoyl)piperidine-2-carboxylate]: the “acetylation of H3.3” value on H3.3-FKBP12^F36V was “significant acetylation of H3.3”.
As to `CC[C@H](C(=O)N1CCCC[C@H]1C(=O)OC(CCc1ccc(OC)c(OC)c1)c1cccc(OCC(=O)NCCCCCCCC(=O)NCCOc2ccc(CCc3nc4cc(-c5c(C)noc5C)ccc4n3CCN3CCOCC3)cc2)c1)c1cc(OC)c(OC)c(OC)c1` (some centres unmarked) [AceTAG-4], on H3.3-FKBP12^F36V, the “acetylation of H3.3” value was “significant acetylation of H3.3”.
For `CCCNC(=O)COc1cccc([C@@H](CCc2ccc(OC)c(OC)c2)OC(=O)[C@@H]2CCCCN2C(=O)[C@@H](CC)c2cc(OC)c(OC)c(OC)c2)c1` [FKBP-c, (R)-3-(3,4-dimethoxyphenyl)-1-(3-(2-oxo-2-(propylamino)ethoxy)phenyl)propyl (S)-1-((S)-2-(3,4,5-trimethoxyphenyl)butanoyl)piperidine-2-carboxylate], the “effect of co-treatment on AceTAG-1 induced acetylation of H3.3-FKBP12^F36V” value at H3.3-FKBP12^F36V (625 nM AceTAG-1 with 50 μM FKBP ligand or 1 μM A485, 2 hr, FIG. 4D) is “blocked”. Moreover, the “effect of co-treatment on AceTAG-1 induced RelA acetylation” value in test [2] is reported as “blockade of induced acetylation”. Further, in test [3], the “effect of co-treatment on AceTAG-1 induced p53 acetylation” value is recorded as “blockade of induced acetylation”. Besides, the “effect of co-treatment on AceTAG-1 induced p21 expression” value in test [1] is “blocked”. The “p21 expression level with ligand alone” value in test [1] (3 μM, compared to 3 μM AceTAG-1, FIG. 7E) is on record as “neither p300 nor FKBP ligand alone increases p21 expression level”.
With `O=C(CCCCCCC(=O)Nc1ccccc1)NO` [SAHA, Vorinostat, reference compound], the “number of proteins with increased acetylation relative to DMSO” value in test [4] is around 30 proteins.
The compound “GST-FKBP12^F36V (from UniProt P62942 2-108)” displayed an AceTAG-1 concentration at maximum ternary complex formation in test [5] of 1 µM.
